Reference: publication PMC7768359, “Synthesis of Platinum(II) Complexes with Some 1-Methylnitropyrazoles and In Vitro Research on Their Cytotoxic Activity” (Pharmaceuticals, 2020)

Assays:
[1] = logP by shake-flask method (n-octanol / 0.9% NaCl, Pt by ICP-OES); type: physicochemical; settings: octanol/water, n = 4
Protocol: An important factor for the pharmacokinetics and the cellular accumulation of the investigated complexes, their lipophilicity was determined by measuring octanol/water partition coefficients (logP) with the shake-flask method. The logP determination was carried out based on a previously described procedure, modified by us to obtain more accurate and repeatable results.
Weighted amounts of the tested platinum complex were suspended by 10 min sonification in 0.9% NaCl water solution, which was previously saturated with n-octanol, and mixed by shaking for 1 h. A simultaneously similar procedure was performed using 5 mL of n-octanol pre-saturated with 0.9% NaCl. Afterward, both suspensions were mixed together, shaken for an additional 1 h, and centrifuged for 5 min. After phase separation and evaporation in vacuo of 1 mL of sample to dryness, the final concentration of Pt was determined by ICP-OES (λ = 265.945 nm) and the partition coefficients were calculated. For the analysis, all samples were dissolved 1:1000 in 2.5% HCl. Each measurement was repeated four times and the final logP was calculated as the arithmetic mean of the four values.

MCF-7 cells = test: Total cellular platinum uptake (ICP OES); type: cell-based, human; settings: MCF-7, 4 h exposure, 10 µM
Protocol: It is necessary to strongly emphasize that the underlined values have a statistically significant lack of variance homogeneity (Fisher–Snedecor’s F-test, Fα/2) with respect to reference drug variance, so Aspin–Welch’s t-test was applied in these cases. […] For ionic compound 8, platinum uptake value was not determined due to Pt concentrations in the cell lysates being below the instrument detection limit (IDL = 10 μg/kg) specified by the manufacturer for the device used.
Cultured MCF-7 cells were seeded at a density of 4 × 10^5 cells/well of culture medium on a 6-well plate (Corning, NY, USA) to a final volume of 2.5 mL. […] The wells without MCF-7 cells were filled with 1 mL of culture medium-containing compound tested to act as a reference for nonspecific platinum complex adsorption on the surface of the well. After incubation, all wells were washed twice with 2 mL of cold PBS, filled with 400 μL of hot (ca 90 °C) 65% nitric acid, and maintained to stand for 2 h. All wells were finally filled with 1600 μL of water and this solution was collected and analyzed using iCAP 7400 Duo ICP OES instrument (Thermo Fisher Scientific) using the plasma axial view (10 s) at λ = 265.945 nm. The amount of Pt per cell was calculated by subtracting the amount of Pt found in the blank well from the amount of Pt found in the cell-containing wells and normalized to the average number of cells per well. The mean and SD values were calculated on the basis of 4 measurements.

[2] = system: A549 (lung adenocarcinoma); test: In vitro cytotoxicity, sulforhodamine B assay; type: cell-based, human; settings: 72 h
Protocol: (§1) Determination of the cytotoxic activity of compounds tested was performed separately in the normoxia or hypoxia conditions to reveal their potentially bioreductive properties. The experiment was carried out on three human cancer cell lines: MCF-7 breast, ES-2 ovarian and A549 lung adenocarcinoma as well as normal murine embryonic fibroblast BALB/3T3 cell line. In order to facilitate the preparation of solutions of the tested compounds, their initial solutions for dilution were made by dissolving the compounds in acetone. For this purpose, it was not possible to use more polar aprotic solvents (DMSO, DMF) due to the rapid isomerization of some of the tested complexes under their influence.
(§2) All the cell lines were cultured at 37 °C in a humid atmosphere containing 5% CO2. Additionally, in the case of cytotoxicity assay with hypoxic conditions, the cells (MCF-7, ES-2, A549) were maintained at 37 °C in a humid atmosphere containing 5% CO2 and 1% O2 during the entire experiment.
(§3) Twenty-four hours before adding the tested compounds, all cell lines were seeded in 96-well plates ([…] AG & Co, Nümbrecht Germany) in an appropriate media with 10^4 cells per well. All cell lines were exposed to each compound tested at four different concentrations for 72 h. […] Additionally, all cell lines were exposed to acetone (Avantor Performance Materials, Gliwice, Poland) (the solvent used for tested compounds) at concentrations corresponding to those present in tested compounds’ dilutions.
(§4) After 72 h of cell incubation with the compounds tested, the sulforhodamine B (SRB) assay was performed as described by Shekan et al. with minor modifications. The cells were fixed in situ by adding 50 µL per well of cold 50% trichloroacetic acid (Avantor Performance Materials, Gliwice, Poland) and were incubated at 4 °C for one hour. Following that, wells were washed five times with water and air dried. Next, 50 µL of 0.4% solution of sulforhodamine B (Sigma-Aldrich, Steinheim, Germany) in 1% acetic acid (Avantor Performance Materials, Gliwice, Poland) were added to each well and plates were incubated at room temperature for 0.5 h. After incubation time, the unbound dye was removed by washing plates five times with 1% acetic acid, whereas stains bound to cells was solubilized with 10 mM Tris base (Sigma-Aldrich, Steinheim, Germany). The absorbance of each solution was read by the Multiskan RC photometer (Labsystems Diagnostics Oy, Vantaa, Finland) at a 540 nm wavelength. Results are presented as mean IC50 (concentration of the compound tested that inhibits cell proliferation by 50%) ± standard deviation. IC50 values were calculated for each experiment on the basis of four different concentrations using Cheburator software, as described by Nevozhay. The tested compounds at each concentration were tested in triplicates in a single experiment and each experiment was repeated at least three times independently.

[3] = system: ES-2 (ovarian adenocarcinoma); test: In vitro cytotoxicity, sulforhodamine B assay; type: cell-based, human; settings: 72 h
Protocol: as §1, §2, §3, §4

[4] = system: MCF-7 (breast adenocarcinoma); test: In vitro cytotoxicity, sulforhodamine B assay; type: cell-based, human; settings: 72 h
Protocol: as §1, §2, §3, §4

[5] = system: BALB/3T3 (murine embryonic fibroblast); test: In vitro cytotoxicity, sulforhodamine B assay, normal cells; type: cell-based; settings: BALB/3T3 normal cells, normoxia, 72 h
Protocol: as §1, with “acetone.” for “acetone. For this purpose, it was not possible to use more polar aprotic solvents (DMSO, DMF) due to the rapid isomerization of some of the tested complexes under their influence.”
All cell lines were exposed to each compound tested at four different concentrations for 72 h. […] Additionally, all cell lines were exposed to acetone (Avantor Performance Materials, Gliwice, Poland) (the solvent used for tested compounds) at concentrations corresponding to those present in tested compounds’ dilutions.
as §4, with “Results are presented as mean IC50 (concentration of the compound tested that inhibits cell proliferation by 50%) ± standard deviation.” left out

[6] = design: method as in PMID 18777181; settings: cited from earlier work

| Compound | logP ± SD [1] | Total Cellular Platinum Uptake in MCF-7 Cells (± SD) (MCF-7 cells) | IC50 ± SD ([2]; A549, hypoxia (1% O2)) | IC50 ± SD ([2]; A549, normoxia) | IC50 ± SD ([3]; ES-2, hypoxia (1% O2)) | IC50 ([3]; ES-2, normoxia) [µM] | IC50 ± SD ([4]; MCF-7, hypoxia (1% O2)) | IC50 ([4]; MCF-7, normoxia) [µM] | IC50 [5] [µM] | half-time of the reaction with GSH [6] [min] | IC50 ± SD ([4]; MCF-7, normoxia) | IC50 ([2]; A549, hypoxia (1% O2)) [µM] | IC50 ([2]; A549, normoxia) [µM] | IC50 ([3]; ES-2, hypoxia (1% O2)) [µM] | IC50 ([4]; MCF-7, hypoxia (1% O2)) [µM] | IC50 ± SD ([3]; ES-2, normoxia) | IC50 ([5]; Mus musculus) [µM] |
| --- | --- | --- | --- | --- | --- | --- | --- | --- | --- | --- | --- | --- | --- | --- | --- | --- | --- |
| COC(=O)c1c([N+](=O)[O-])c[n+]([Pt@SP2-2]([Cl])([Cl])[n+]2cc([N+](=O)[O-])c(C(=O)OC)n2C)n1C [Compound 5, cis-dichloridobis(methyl 1-methyl-4-nitropyrazole-5-carboxylate)platinum(II)] | −0.58 ± 0.13 | 39 ± 3 ng Pt/10^6 Cells | inactive | inactive | inactive | 38.1 ± 9.2 | inactive | 49.1 ± 30.1 | > 100 |  |  |  |  |  |  |  |  |
| N.N.[Cl][Pt+2][Cl] [transplatin] |  |  |  |  |  |  |  |  |  | 4 |  |  |  |  |  |  |  |
| COC(=O)c1c([N+](=O)[O-])cn(C)[n+]1[Pt-2]([Cl])([Cl])[Cl].[K+] [Compound 8, potassium trichlorido(3-carboxymethyl-1-methyl-4-nitropirazole)platinate(II)] | −1.22 ± 0.08 | ^† below IDL | inactive | inactive | inactive | 48.5 ± 25.9 | inactive |  | > 100 |  | inactive |  |  |  |  |  |  |
| N.N.[Cl][Pt][Cl] [Cisplatin, cisplatin, reference compound] |  | 74 ± 20 ng Pt/10^6 Cells |  |  |  | 8.6 ± 2.6 |  | 12.6 ± 2.6 | 8.67 ± 2.6 |  |  | 23.9 ± 9.3 | 9.8 ± 1.2 | 13.7 ± 5.7 | 14.7 ± 5.8 |  |  |
| Cn1cc([N+](=O)[O-])cn1 [1-Methyl-4-nitropyrazole, 1-methyl-4-nitropyrazole, reference compound] |  |  | inactive | inactive | inactive |  | inactive |  |  |  | inactive |  |  |  |  | inactive | > 100 |
| Cc1c([N+](=O)[O-])cn(C)[n+]1[Pt@SP2-2]([Cl])([Cl])[n+]1c(C)c([N+](=O)[O-])cn1C [Compound 7, cis-dichloridobis(1,3-dimethyl-4-nitropyrazole)platinum(II)] | −0.69 ± 0.04 | 16 ± 7 ng Pt/10^6 Cells | inactive |  | inactive | 68.9 ± 10 | inactive | 58 ± 8.7 | > 100 |  |  |  | 93 ± 12.9 |  |  |  |  |
| COC(=O)c1c([N+](=O)[O-])c[n+]([Pt@SP3-2]([Cl])([Cl])[n+]2cc([N+](=O)[O-])c(C(=O)OC)n2C)n1C [Compound 6, trans-dichloridobis(methyl 1-methyl-4-nitropyrazole-5-carboxylate)platinum(II)] | −0.37 ± 0.03 | 47 ± 17 ng Pt/10^6 Cells | inactive |  |  | 36.3 ± 8.6 |  | 23.6 ± 8.6 | > 100 |  |  |  | 58.2 ± 7.6 | 99.8 ± 37.9 | 86.8 ± 19 |  |  |
